Measured values: ChEMBL document CHEMBL1157539, “Thousands of chemical starting points for antimalarial lead identification” (Nature, 2010)
Several values for one entry are separate records, joined by “and”; a condition that tells them apart may be missing. Identical values can stand only once.

Tested on: Plasmodium falciparum
Test: GSK_TCMDC: Inhibition of Plasmodium falciparum 3D7 in whole erythrocytes, using parasite LDH activity as an index of growth.
Format: functional, organism-based
Conditions: not given

In the case of O=C(Nc1ccccc1OC(F)(F)F)NC1CCC(CN2CCC(c3c[nH]c4ccccc34)CC2)CC1 (stereo not drawn), the XC50 is reported as 369 nM and 800 nM.

Same assay, conditions: Plasmodium falciparum, 3D7

CCCN(CC)CCOC(=O)c1ccccc1 and CCOC(=O)c1nc(-c2ccccc2)[nH]c1NC(=S)NC1CCCCC1 are within 1.5-fold of each other in XC50: 739 nM for the first, 836 nM for the second.

Going from CC(C)C[C@@H](/C=N/N1CC(=O)NC1=O)NC(=O)[C@H](CC(C)C)NC(=O)c1ccc(OCCN2CCOCC2)cc1 to CC(C)C[C@H](NC(=O)c1cc(-c2ccc(F)cc2)no1)C(=O)O.CC(C)C[C@H](NC(=O)c1conc1-c1ccc(F)cc1)C(=O)O, the XC50 rises from 270 nM to 979 nM (3.6-fold).

Compared with c1csc(-c2ccc3c(c2)CC(NCc2c[nH]c4cnccc24)C3)c1 (stereo not drawn), CC[C@H](C)CNC(=O)c1cncc(-c2ccc(CNC3CCCC3)cc2)c1 is 1.5-fold higher in XC50: 738 nM for the first, 1120 nM for the second.

O=C(Nc1ccc2c(c1)CCN2C1CCN(Cc2ccc(F)cc2Cl)C1)c1ccco1 (stereo not drawn) and O=C(Nc1ccc(OC2CCN(Cc3ccsc3)CC2)c(Cl)c1)c1ccc(F)cc1 are within 1.5-fold of each other in XC50: 470 nM for the first, 647 nM for the second.

Going from CSc1cccc(NC(=O)c2cc3ccccc3oc2=O)c1 to Cc1cc(N)c2cc(NC(=O)/C=C/c3ccccc3Cl)ccc2n1, the XC50 falls from 833 nM to 405 nM (2.1-fold).

First: O=C(NCCN1CCC(c2ccncc2)CC1)c1cccc(Nc2nccc(Nc3ccc(Oc4ccccc4)cc3)n2)c1
Second: c1ccc(Oc2ccc(Nc3ccnc(Nc4ccc(CN5CCOCC5)cc4)n3)cc2)cc1
The XC50 of the first is 5.6-fold lower: 168 nM for the first, 941 nM for the second.

Compared with COc1ccc(Nc2ccnc3cc(Cl)ccc23)cc1OC, O=C(Nc1cccc(C(F)(F)F)c1)NC1CCN(c2ccnc3cc(Cl)ccc23)CC1 is 3.9-fold lower in XC50: 1120 nM for the first, 289 nM for the second.

Going from CCN(CC)CCN(Cc1ccc(-c2ccc(C(F)(F)F)cc2)cc1)C(=O)Cn1c(CCC2CCCCC2)nc(=O)c2ccccc21 to COc1ccc(C(=O)NCCCCN2CCC(c3ccc4c(c3OC)CCCC4)CC2)cc1-c1ccc(C(F)(F)F)cc1, the XC50 falls from 1390 nM to 755 nM (1.8-fold).

Going from Cc1ccc(OCCCCON2C(=N)N=C(N)NC2(C)C)cc1C to CCOC(=O)C(=O)N1c2ccc(OCC)cc2-c2c(ssc2=S)C1(C)C, the XC50 rises from 3.2 nM to 216 nM (68-fold).

Compared with O=C(Nc1cccc(-c2cccc(F)c2)c1)C1CCN(Cc2ccc(O)cc2)CC1, NCc1cccc(-c2cccc(CN(C(=O)Nc3ccccc3)C3CCN(Cc4ccccc4)CC3)c2)c1 is 2.1-fold lower in XC50: 1730 nM for the first, 829 nM for the second.

O=C(NCCCCN1CCN(c2cccc(Cl)c2Cl)CC1)c1ccc2c(c1)CCN(C1CCC1)CC2 and O=C(/C=C/c1ccc(Cl)c(Cl)c1)NCCCCCN1CCC(NC(=O)c2ccc(F)c(F)c2)CC1 are within 1.5-fold of each other in XC50: 747 nM for the first, 788 nM for the second.

O=C(NCc1cc2c(cc1Cl)OCO2)c1ccc(CNC2CCN(Cc3ccccc3)CC2)cc1 and N#Cc1ccc(CN2CCCN(Cc3cccc(NC(=O)c4ccc(Cl)c(Cl)c4)c3)CC2)cc1 are within 1.5-fold of each other in XC50: 831 nM for the first, 850 nM for the second.

COc1ccc(-c2cnc3[nH]cc(-c4ccc(CCC(=O)O)cc4)c3c2)cn1 and CN(C)CCNC(=O)c1ccc(-c2cnc3ccc(NCc4ccc(Cl)c(Cl)c4)nn23)cc1 are within 1.5-fold of each other in XC50: 773 nM for the first, 913 nM for the second.

First: CC1CN=C(Nc2ncc(Cl)cc2Cl)N1 (stereo not drawn)
Second: CN1CCc2ccc(NC(=O)Nc3ccc(Cl)c(Cl)c3)cc2C1
The XC50 of the first is 3.1-fold lower: 237 nM for the first, 724 nM for the second.

Going from CN(C)CCCNc1nccc(N(C)c2ccc(NC(=O)Nc3cc(C(F)(F)F)ccc3F)cc2)n1 to CCN(CC)CCCNc1ncc2c(-c3ccc(NC(=O)Nc4cc(C(F)(F)F)ccc4F)cc3)nn(C)c2n1, the XC50 falls from 980 nM to 220 nM (4.5-fold).

Cc1cccc2nc(-c3cccc(-c4ccc(CN5CCN(CCO)CC5)cc4)c3)[nH]c12 and Cc1cccc2nc(-c3cccc(-c4ccc(NC(=O)c5cnccc5C(F)(F)F)cc4)c3)[nH]c12 are within 1.5-fold of each other in XC50: 823 nM for the first, 695 nM for the second.

First: O=C(/C=C/c1ccc(Cl)c(Cl)c1)NCCCCCN1CCCC(CNC(=O)c2sc3ccccc3c2Cl)C1 (stereo not drawn)
Second: CCCCNC(=O)[C@H](CC1CCCCC1)NC(=O)c1ccc(O)c(-c2ccc(Cl)c(Cl)c2)c1
The XC50 of the first is 5.3-fold higher: 870 nM for the first, 164 nM for the second.

Compared with N#Cc1ccc2[nH]cc(CN3CCC4(CC3)CN(CCNCc3ccccc3)C(=O)CO4)c2c1, N#Cc1ccc2c(c1)CCN(CCC1CCC(NC(=O)/C=C/c3c[nH]c4c(Br)cccc34)CC1)CC2 (stereo not drawn) is 2-fold lower in XC50: 758 nM for the first, 379 nM for the second.

COc1ccc(C(=O)NC(c2ccc(Cl)cc2Cl)c2cc(Cl)c3cccnc3c2O)cc1 (stereo not drawn) and COc1ccc2nccc([C@@H](O)CN3CCC(NCc4nc5c(F)cccc5[nH]4)CC3)c2c1 are within 1.5-fold of each other in XC50: 499 nM for the first, 467 nM for the second.

Compared with CC1(C)[C@H]2CC[C@@H](CNc3nc(NCCc4c[nH]cn4)nc(Nc4ccc5c(c4)OCO5)n3)[C@@H]1C2, Nc1nc(N)c2c(ccc3c2ccn3Cc2ccc3c(c2)OCO3)n1 is 170-fold lower in XC50: 537 nM for the first, 3.2 nM for the second.

CCOC(=O)C1=C(C)N=c2sc(=Cc3cc(Cl)ccc3O)c(=O)n2C1c1ccc2c(c1)OCO2 (stereo not drawn) and Cc1cc(O)c(CN(C)Cc2ccc3c(c2)OCO3)cc1C(C)C are within 1.5-fold of each other in XC50: 712 nM for the first, 738 nM for the second.

Compared with C[C@H](NC(=O)c1c(CN2CCN(C(=O)C(C)(C)C)CC2)c(-c2cccs2)nc2ccccc12)C1CCCCC1, C[C@H](NC(=O)c1c(CN2CCC(N3CCCCC3)CC2)c(-c2ccccc2)nc2cc(O)ccc12)C1CCCCC1 is 1.6-fold lower in XC50: 1180 nM for the first, 759 nM for the second.

N#Cc1ccc(NC(=O)c2ccc(C(=O)NCCCCN3CCC(c4ccc5c(c4OCCOC4CCCCO4)CCCC5)CC3)cc2)cc1 (stereo not drawn) and CCOc1ccc(OCC)c(N2CCN(CCCCNC(=O)c3ccc(NC(=O)c4ccc(Cl)cc4)cc3)CC2)c1 are within 1.5-fold of each other in XC50: 580 nM for the first, 587 nM for the second.

Compared with O=S(=O)(Nc1ccc(CCN2CCC(N3CCCCC3)CC2)cc1)c1cccc(C(F)(F)F)c1, Cn1nc(-c2ccc(S(=O)(=O)N3CCC(CN4CCC(c5c[nH]c6ccccc56)CC4)CC3)s2)cc1C(F)(F)F is 1.6-fold higher in XC50: 702 nM for the first, 1090 nM for the second.

Compared with COC(=O)c1ccc(OCC(C)NCC(O)c2cccc(C(F)(F)F)c2)cc1 (stereo not drawn), CC(Oc1ccc(Cl)cc1)C(=O)Nc1cc(C(F)(F)F)ccc1-n1cncn1 (stereo not drawn) is 5.5-fold lower in XC50: 838 nM for the first, 151 nM for the second.

Cn1ccnc1S(=O)(=O)CCNCc1ccc(-c2ccc3ncnc(Nc4ccc(OCc5cccc(F)c5)c(Cl)c4)c3c2)o1 and CS(=O)(=O)NCCCNCc1ccc(-c2cccc(-c3nc4cc(F)ccc4[nH]3)c2)cc1 are within 1.5-fold of each other in XC50: 701 nM for the first, 804 nM for the second.

COc1ccc(CN2CCN(CCCCNC(=O)c3ccc(NC(=O)c4ccc(Cl)cc4)cc3)CC2)c(OC)c1 and CCOC(=O)c1ccc(N2CCN(c3cc(C)ccc3C)CC2)c(NC(=O)Nc2ccc(Cl)c(Cl)c2)c1 are within 1.5-fold of each other in XC50: 890 nM for the first, 712 nM for the second.

Going from Cc1ccc(S(=O)(=O)NC2CCN(CCNC(=O)Nc3cc(C)nc4ccccc34)C2)cc1 (stereo not drawn) to Cc1cc(NCCC(=O)Nc2ccccc2)nc(NCc2ccccc2C)n1, the XC50 falls from 1040 nM to 657 nM (1.6-fold).

Cc1ccc(CNC(=O)[C@H](Cc2ccccc2)Nc2cc(C)nc(NCCc3ccc(F)cc3)n2)cc1 and CCCC(C)Nc1nc(C)cc(N[C@@H](CC(C)C)C(=O)NCc2cccc(F)c2)n1 (stereo partly drawn) are within 1.5-fold of each other in XC50: 980 nM for the first, 1000 nM for the second.

O=C(C1CCCCC1)N1CCOC(CCN2CCC(c3ccccc3)CC2)(c2ccc(Cl)c(Cl)c2)C1 (stereo not drawn) and O=C(/C=C/c1c(Cl)cccc1Cl)NC1CCC(CN2CCC(Cc3cc4ccccc4[nH]3)CC2)CC1 (stereo not drawn) are within 1.5-fold of each other in XC50: 930 nM for the first, 975 nM for the second.

Cc1ccc2c(C3=CCN(CCCCC4(C)C(=O)Nc5c(F)cccc54)CC3)c(C)[nH]c2c1 (stereo not drawn) and Cc1[nH]c2ccccc2c1C1=CCN(CCCCCC23CCCc4cccc(c42)NC3=O)CC1 (stereo not drawn) are within 1.5-fold of each other in XC50: 265 nM for the first, 253 nM for the second.

First: CC(C)(CNC(=O)C1CCN(Cc2ccc(Cl)cc2)CC1)c1nc(-c2ccc(Cl)c(O)c2)c(-c2ccncc2)[nH]1
Second: O=C(Nc1cc(C(F)(F)F)ccc1Cl)c1ccc(Cn2cc(Br)cn2)cc1
The XC50 of the first is 2.2-fold lower: 623 nM for the first, 1350 nM for the second.

First: COc1ccc2nccc([C@@H](O)CN3CCC(NCc4cc5ccc(C#N)cc5[nH]4)CC3)c2c1
Second: COc1ccc2nccc([C@@H](O)CN3CCC(NCc4ccc5c(c4)nnn5C(C)C)CC3)c2c1
The XC50 of the first is 6.8-fold lower: 95 nM for the first, 642 nM for the second.

Compared with O=C(NCCCN(Cc1ccc(F)cc1)c1ccccn1)C(c1cc2ccccc2o1)N1CCN(C(c2ccccc2)c2ccccc2)CC1 (stereo not drawn), O=C(Nc1ccccc1)N(Cc1ccccc1-c1cccc(CNCCc2ccccc2)c1)C1CCN(Cc2ccccc2)CC1 is 4.8-fold lower in XC50: 838 nM for the first, 176 nM for the second.

First: N#Cc1ccc(N2CCN(C(=O)c3cccc(-c4noc(C(F)(F)F)n4)c3)CC2)nc1
Second: O=C(/C=C/c1cc(F)cc(C(F)(F)F)c1)N1CCC(CN2CCC(c3c[nH]c4ccccc34)CC2)CC1
The XC50 of the first is 3.4-fold lower: 220 nM for the first, 756 nM for the second.

Compared with COc1ccc(OC)c(Cc2cnc3nc(N)nc(N)c3c2C)c1 [PIRITREXIM], COc1ccccc1-c1nc2c(ccc3nc(N)nc(N)c32)[nH]1 is 17-fold higher in XC50: 10.2 nM for the first, 176 nM for the second.

Going from COC(=O)c1cccc(CNCc2cccc(-c3ccc(-c4nc5cccc(C)c5[nH]4)cc3)c2)c1 to c1ccc(-c2ccc(-c3csc(Nc4ccncc4)n3)cc2)cc1, the XC50 rises from 322 nM to 1010 nM (3.1-fold).

Cc1cc(=NN=Cc2ccccc2F)c2cccc(C)c2[nH]1 and COc1ccc(OC)c2c1CCN(C)C2Cc1cccc2ccccc12 (stereo not drawn) are within 1.5-fold of each other in XC50: 764 nM for the first, 1050 nM for the second.

COc1cc(NC(=O)c2c(-c3c(Cl)cccc3Cl)noc2C)c(OC)cc1Cl and COc1ccc(C(=O)Nc2cc(Br)c3c(c2)CNCC3)cc1C(F)(F)F are within 1.5-fold of each other in XC50: 916 nM for the first, 1070 nM for the second.

NS(=O)(=O)c1ccc(Nc2nccc(-c3c(-c4cccc(NC(=O)c5c(F)cccc5F)c4)nn4ccccc34)n2)cc1 and CN(C)CCC1CCN(CCS(=O)(=O)c2cccc(Nc3ncc(-c4cccc(F)c4)cn3)c2)CC1 are within 1.5-fold of each other in XC50: 762 nM for the first, 1060 nM for the second.

First: Cc1nc(-c2nc(N3CCOCC3)ncc2-c2ccsc2)sc1C
Second: Cc1ccc(Cc2c[nH]c(NCCSCc3ccc(CN4CCOCC4)o3)nc2=O)cn1
The XC50 of the first is 3.4-fold lower: 315 nM for the first, 1070 nM for the second.

O=C(Nc1ccc(OC2CCN(Cc3ccsc3)C2)c(Cl)c1)c1ccsc1 (stereo not drawn) and COc1ccc2nccc([C@@H](O)CN3CCC(NS(=O)(=O)c4cc5c(cc4Cl)SCC(=O)N5)CC3)c2c1 are within 1.5-fold of each other in XC50: 1020 nM for the first, 982 nM for the second.

Going from N=C(N)Nc1nc(-c2ccc(NC(=N)N3CCC[C@H]3CN3CCCC3)cc2)cs1 to CC[C@H]1CN2CC[C@H]1C[C@H]2[C@H](O)c1cc(N2CCCC(CO)C2)nc2ccc(OC)cc12 (stereo partly drawn), the XC50 falls from 1110 nM to 77.5 nM (14-fold).

Cc1ccc(C(c2nnnn2C2CCCC2)N(Cc2ccco2)Cc2ccccc2Cl)cc1 (stereo not drawn) and OC(c1cc(C(F)(F)F)nc2c(F)cccc12)C1CCCCN1 (stereo not drawn) are within 1.5-fold of each other in XC50: 959 nM for the first, 782 nM for the second.

First: CC(C)C[C@@H]1C(=O)N[C@H](C2Cc3ccccc3C2)C(=O)N1[C@@H](C(=O)O)c1ccc(F)cc1F
Second: CCNc1cc(C(=O)N[C@@H](Cc2ccccc2)[C@H](O)CNC23CC4CC(CC(C4)C2)C3)cc(N2CCCCS2(=O)=O)c1
The XC50 of the first is 3.8-fold higher: 836 nM for the first, 219 nM for the second.

First: COc1ccc2nc(N=C3NC4(c5ccccc5)NC(=Nc5nc6ccc(OC)cc6[nH]5)NC4(c4ccccc4)N3)[nH]c2c1 (stereo not drawn)
Second: O=C(Nc1cccc([N+](=O)[O-])c1)Nc1cccc(C(F)(F)F)c1
The XC50 of the first is 3.8-fold lower: 204 nM for the first, 767 nM for the second.
